From publication PMC9866191, “Novel 9-Benzylaminoacridine Derivatives as Dual Inhibitors of Phosphodiesterase 5 and Topoisomerase II for the Treatment of Colon Cancer” (Molecules, 2023)

Assays:
Assay in all cases: NCI-60 one-dose screen
Type in all cases: cell-based
MDA-MB-468 = details: Homo sapiens; MDA-MB-468, Breast Cancer panel; single dose 10^−5 M; read-out: Growth inhibition %
UACC-62 = details: Homo sapiens; UACC-62, Melanoma panel; single dose 10^−5 M; read-out: Growth inhibition %
COLO 205 = details: Homo sapiens; COLO 205, Colon Cancer panel; single dose 10^−5 M; read-out: Growth inhibition %
HS 578T = details: Homo sapiens, Breast Cancer panel, single dose 10^−5 M, read-out: Growth inhibition %
MALME-3M = details: Homo sapiens, Melanoma panel, single dose 10^−5 M, read-out: Growth inhibition %
NCI/ADR-RES = details: Homo sapiens, Ovarian Cancer panel, single dose 10^−5 M, read-out: Growth inhibition %
CAKI-1 = details: Homo sapiens; CAKI-1, Renal Cancer panel; single dose 10^−5 M; read-out: Growth inhibition %
PC-3 = details: Homo sapiens; PC-3, Prostate Cancer panel; single dose 10^−5 M; read-out: Growth inhibition %
MCF7 = details: Homo sapiens; MCF7, Breast Cancer panel; single dose 10^−5 M; read-out: Growth inhibition %
SN12C = details: Homo sapiens, Renal Cancer panel, single dose 10^−5 M, read-out: Growth inhibition %
U251 = details: Homo sapiens, U-251; U251, CNS Cancer panel; single dose 10^−5 M; read-out: Growth inhibition %
NCI-H522 = details: Homo sapiens; NCI-H522, Non-small cell lung panel; single dose 10^−5 M; read-out: Growth inhibition %
NCI-H23 = details: Homo sapiens; NCI-H23, Non-small cell lung panel; single dose 10^−5 M; read-out: Growth inhibition %
UACC-257 = details: Homo sapiens; UACC-257, Melanoma panel; single dose 10^−5 M; read-out: Growth inhibition %
T-47D = details: Homo sapiens, T47D, Breast Cancer panel, single dose 10^−5 M, read-out: Growth inhibition %
OVCAR-4 = details: Homo sapiens; OVCAR-4, Ovarian Cancer panel; single dose 10^−5 M; read-out: Growth inhibition %
SK-MEL-5 = details: Homo sapiens; SK-MEL-5, Melanoma panel; single dose 10^−5 M; read-out: Growth inhibition %
ACHN = details: Homo sapiens, Renal Cancer panel, single dose 10^−5 M, read-out: Growth inhibition %
M14 = details: Homo sapiens; M14, Melanoma panel; single dose 10^−5 M; read-out: Growth inhibition %
BT-549 = details: Homo sapiens; BT-549, Breast Cancer panel; single dose 10^−5 M; read-out: Growth inhibition %
HT29 = details: Homo sapiens, HT-29; HT29, Colon Cancer panel; single dose 10^−5 M; read-out: Growth inhibition %
SK-MEL-2 = details: Homo sapiens; SK-MEL-2, Melanoma panel; single dose 10^−5 M; read-out: Growth inhibition %
SF-295 = details: Homo sapiens; SF-295, CNS Cancer panel; single dose 10^−5 M; read-out: Growth inhibition %
A549/ATCC = details: Homo sapiens, Non-small cell lung panel, single dose 10^−5 M, read-out: Growth inhibition %
SW-620 = details: Homo sapiens; SW-620, Colon Cancer panel; single dose 10^−5 M; read-out: Growth inhibition %
EKVX = details: Homo sapiens, Non-small cell lung panel, single dose 10^−5 M, read-out: Growth inhibition %
HL-60(TB) = details: Homo sapiens, Leukemia panel, single dose 10^−5 M, read-out: Growth inhibition %
786-0 = details: Homo sapiens; 786-0, Renal Cancer panel; single dose 10^−5 M; read-out: Growth inhibition %
HOP-92 = details: Homo sapiens; HOP-92, Non-small cell lung panel; single dose 10^−5 M; read-out: Growth inhibition %
HCT-116 = details: Homo sapiens, read-out: Growth inhibition %
HOP-62 = details: Homo sapiens; HOP-62, Non-small cell lung panel; single dose 10^−5 M; read-out: Growth inhibition %
SNB-75 = details: Homo sapiens; SNB-75, CNS Cancer panel; single dose 10^−5 M; read-out: Growth inhibition %
NCI-H322M = details: Homo sapiens, Non-small cell lung panel, single dose 10^−5 M, read-out: Growth inhibition %

## COc1ccccc1CNc1c2ccccc2nc2ccccc12 [Compound 5, Acridin-9-yl-(2-methoxybenzyl)-amine]
MDA-MB-468
  inhibition at 10 µM: 71.7%
UACC-62
  inhibition at 10 µM: 39.5%
COLO 205
  inhibition at 10 µM: 87.2%
HS 578T
  inhibition at 10 µM: 38%
MALME-3M
  inhibition at 10 µM: 54.1%
NCI/ADR-RES
  inhibition at 10 µM: 65.2%
CAKI-1
  inhibition at 10 µM: 54.3%
PC-3
  inhibition at 10 µM: 56.8%
MCF7
  inhibition at 10 µM: 83.2%
SN12C
  inhibition at 10 µM: 65.3%
U251
  inhibition at 10 µM: 61.4%
NCI-H522
  inhibition at 10 µM: 37.6%
NCI-H23
  inhibition at 10 µM: 69.1%
UACC-257
  inhibition at 10 µM: 35.9%
T-47D
  inhibition at 10 µM: 53.8%
OVCAR-4
  inhibition at 10 µM: 57.8%
SK-MEL-5
  inhibition at 10 µM: 40.8%
ACHN
  inhibition at 10 µM: 77.3%
M14
  inhibition at 10 µM: 59.1%
BT-549
  inhibition at 10 µM: 23%
HT29
  inhibition at 10 µM: 82.3%
SK-MEL-2
  inhibition at 10 µM: 26.5%
SF-295
  inhibition at 10 µM: 62.6%
A549/ATCC
  inhibition at 10 µM: 65.8%
SW-620
  inhibition at 10 µM: 77.9%
EKVX
  inhibition at 10 µM: 34.3%
HL-60(TB)
  inhibition at 10 µM: 55.2%
786-0
  inhibition at 10 µM: 60.7%
HOP-92
  inhibition at 10 µM: 81.8%
HCT-116
  inhibition at 10 µM: 87.3%
HOP-62
  inhibition at 10 µM: 55.5%
SNB-75
  inhibition at 10 µM: 36.5%
NCI-H322M
  inhibition at 10 µM: 51.4%

## COc1cccc(CNc2c3ccccc3nc3ccccc23)c1 [Compound 6, Acridin-9-yl-(3-methoxybenzyl)-amine]
MDA-MB-468
  inhibition at 10 µM: 86.4%
UACC-62
  inhibition at 10 µM: 36.5%
COLO 205
  inhibition at 10 µM: 90.4%
HS 578T
  inhibition at 10 µM: 44.4%
MALME-3M
  inhibition at 10 µM: 56%
NCI/ADR-RES
  inhibition at 10 µM: 62.5%
CAKI-1
  inhibition at 10 µM: 64.3%
PC-3
  inhibition at 10 µM: 61.1%
MCF7
  inhibition at 10 µM: 85.4%
SN12C
  inhibition at 10 µM: 62.1%
U251
  inhibition at 10 µM: 61.3%
NCI-H522
  inhibition at 10 µM: 38.3%
NCI-H23
  inhibition at 10 µM: 62.7%
UACC-257
  inhibition at 10 µM: 45%
T-47D
  inhibition at 10 µM: 54.1%
OVCAR-4
  inhibition at 10 µM: 56.4%
SK-MEL-5
  inhibition at 10 µM: 42.4%
ACHN
  inhibition at 10 µM: 80.8%
M14
  inhibition at 10 µM: 64.8%
BT-549
  inhibition at 10 µM: 31.3%
HT29
  inhibition at 10 µM: 81.3%
SK-MEL-2
  inhibition at 10 µM: 32.1%
SF-295
  inhibition at 10 µM: 64%
A549/ATCC
  inhibition at 10 µM: 69.8%
SW-620
  inhibition at 10 µM: 74.5%
EKVX
  inhibition at 10 µM: 48.2%
HL-60(TB)
  inhibition at 10 µM: 59.1%
786-0
  inhibition at 10 µM: 62.7%
HOP-92
  inhibition at 10 µM: 74.5%
HCT-116
  inhibition at 10 µM: 90.1%
HOP-62
  inhibition at 10 µM: 53.5%
SNB-75
  inhibition at 10 µM: 43.1%
NCI-H322M
  inhibition at 10 µM: 56%

## COc1ccc(CNc2c3ccccc3nc3ccccc23)cc1 [Compound 7, Acridin-9-yl-(4-methoxybenzyl)-amine]
MDA-MB-468
  inhibition at 10 µM: 72.9%
UACC-62
  inhibition at 10 µM: 44.2%
COLO 205
  inhibition at 10 µM: 88.4%
HS 578T
  inhibition at 10 µM: 42%
MALME-3M
  inhibition at 10 µM: 60%
NCI/ADR-RES
  inhibition at 10 µM: 61.2%
CAKI-1
  inhibition at 10 µM: 70.7%
PC-3
  inhibition at 10 µM: 66%
MCF7
  inhibition at 10 µM: 87.4%
SN12C
  inhibition at 10 µM: 67.8%
U251
  inhibition at 10 µM: 63.5%
NCI-H522
  inhibition at 10 µM: 47%
NCI-H23
  inhibition at 10 µM: 61.2%
UACC-257
  inhibition at 10 µM: 47.7%
T-47D
  inhibition at 10 µM: 55.1%
OVCAR-4
  inhibition at 10 µM: 59.7%
SK-MEL-5
  inhibition at 10 µM: 37.8%
ACHN
  inhibition at 10 µM: 81.2%
M14
  inhibition at 10 µM: 62.9%
BT-549
  inhibition at 10 µM: 19.9%
HT29
  inhibition at 10 µM: 80.7%
SK-MEL-2
  inhibition at 10 µM: 39.9%
SF-295
  inhibition at 10 µM: 60.9%
A549/ATCC
  inhibition at 10 µM: 71.1%
SW-620
  inhibition at 10 µM: 74.4%
EKVX
  inhibition at 10 µM: 50.3%
HL-60(TB)
  inhibition at 10 µM: 57%
786-0
  inhibition at 10 µM: 67.6%
HOP-92
  inhibition at 10 µM: 75.5%
HCT-116
  inhibition at 10 µM: 90.5%
HOP-62
  inhibition at 10 µM: 46.1%
SNB-75
  inhibition at 10 µM: 38.2%
NCI-H322M
  inhibition at 10 µM: 52.9%

## Fc1ccccc1CNc1c2ccccc2nc2ccccc12 [Compound 8, Acridin-9-yl-(2-fluorobenzyl)-amine]
MDA-MB-468
  inhibition at 10 µM: 78.2%
UACC-62
  inhibition at 10 µM: 38.4%
COLO 205
  inhibition at 10 µM: 84.9%
HS 578T
  inhibition at 10 µM: 30.9%
MALME-3M
  inhibition at 10 µM: 55.3%
NCI/ADR-RES
  inhibition at 10 µM: 62%
CAKI-1
  inhibition at 10 µM: 64.2%
PC-3
  inhibition at 10 µM: 52.9%
MCF7
  inhibition at 10 µM: 83.8%
SN12C
  inhibition at 10 µM: 60.4%
U251
  inhibition at 10 µM: 53.1%
NCI-H522
  inhibition at 10 µM: 34.2%
NCI-H23
  inhibition at 10 µM: 55.9%
UACC-257
  inhibition at 10 µM: 41.2%
T-47D
  inhibition at 10 µM: 55.2%
OVCAR-4
  inhibition at 10 µM: 60%
SK-MEL-5
  inhibition at 10 µM: 39.3%
ACHN
  inhibition at 10 µM: 76.9%
M14
  inhibition at 10 µM: 46%
BT-549
  inhibition at 10 µM: 15.1%
HT29
  inhibition at 10 µM: 76.7%
SK-MEL-2
  inhibition at 10 µM: 21.8%
SF-295
  inhibition at 10 µM: 48.2%
A549/ATCC
  inhibition at 10 µM: 65.9%
SW-620
  inhibition at 10 µM: 71.5%
EKVX
  inhibition at 10 µM: 38.3%
HL-60(TB)
  inhibition at 10 µM: 43.1%
786-0
  inhibition at 10 µM: 60%
HOP-92
  inhibition at 10 µM: 77.3%
HCT-116
  inhibition at 10 µM: 86.1%
HOP-62
  inhibition at 10 µM: 47.5%
SNB-75
  inhibition at 10 µM: 28.3%
NCI-H322M
  inhibition at 10 µM: 49.7%

## Fc1cccc(CNc2c3ccccc3nc3ccccc23)c1 [Compound 9, Acridin-9-yl-(3-fluorobenzyl)-amine]
MDA-MB-468
  inhibition at 10 µM: 99.4%
UACC-62
  inhibition at 10 µM: 49.7%
COLO 205
  inhibition at 10 µM: 82.7%
HS 578T
  inhibition at 10 µM: 36.1%
MALME-3M
  inhibition at 10 µM: 49.5%
NCI/ADR-RES
  inhibition at 10 µM: 69.9%
CAKI-1
  inhibition at 10 µM: 73%
PC-3
  inhibition at 10 µM: 51%
MCF7
  inhibition at 10 µM: 92.1%
SN12C
  inhibition at 10 µM: 67.2%
U251
  inhibition at 10 µM: 64.8%
NCI-H522
  inhibition at 10 µM: 62.2%
NCI-H23
  inhibition at 10 µM: 66.1%
UACC-257
  inhibition at 10 µM: 41.9%
T-47D
  inhibition at 10 µM: 57.3%
OVCAR-4
  inhibition at 10 µM: 69.5%
SK-MEL-5
  inhibition at 10 µM: 39.5%
ACHN
  inhibition at 10 µM: 82.9%
M14
  inhibition at 10 µM: 61.2%
BT-549
  inhibition at 10 µM: 22.9%
HT29
  inhibition at 10 µM: 85.7%
SK-MEL-2
  inhibition at 10 µM: 18.6%
SF-295
  inhibition at 10 µM: 74.8%
A549/ATCC
  inhibition at 10 µM: 70.8%
SW-620
  inhibition at 10 µM: 78%
EKVX
  inhibition at 10 µM: 68%
HL-60(TB)
  inhibition at 10 µM: 53%
786-0
  inhibition at 10 µM: 63.5%
HOP-92
  inhibition at 10 µM: 104%
HCT-116
  inhibition at 10 µM: 86.6%
HOP-62
  inhibition at 10 µM: 52.1%
SNB-75
  inhibition at 10 µM: 37%
NCI-H322M
  inhibition at 10 µM: 59.8%
